Test results as given in PubChem BioAssay AID256 (DTP/NCI, 2004).
Several values for one entry are separate records, joined by “and”; a condition that tells them apart may be missing. Equal values may be shown once. Toxic doses and inconclusive results are not listed. The calls were made as follows: active = survival T/C of 150% or more; inactive = T/C below 125% in these data.

System: CD2F1 mice, L1210 leukemia ip, survival T/C
Assay: NCI In Vivo Anticancer Drug Screen. Data for tumor model L1210 Leukemia (intraperitoneal) in CD2F1 (CDF1) mice
Conditions: endpoint: mean survival time, higher = longer survival
Outline: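 Vehicle-treated tumor-bearing mice served as controls (C) for compound-treated mice (T). Reported figure is T divided by C.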

[1] = dose: 100.0 mg/kg/injection, schedule: Q01DX009 (ip), vehicle: saline with Tween-80
[2] = dose: 100.0 mg/kg/injection, schedule: Q04DX003 (ip), vehicle: saline with Tween-80
[3] = dose: 200.0 mg/kg/injection, schedule: Q01DX009 (ip), vehicle: saline with Tween-80
[4] = dose: 200.0 mg/kg/injection, schedule: Q04DX003 (ip), vehicle: saline with Tween-80
[5] = dose: 400.0 mg/kg/injection, schedule: Q01DX009 (ip), vehicle: saline with Tween-80
[6] = dose: 400.0 mg/kg/injection, schedule: Q04DX003 (ip), vehicle: saline with Tween-80
[7] = dose: 50.0 mg/kg/injection, schedule: Q04DX002 (ip), vehicle: saline with Tween-80

Measured: T/C

C/C=C1/CN2[C@H]3C[C@@]45c6ccccc6N[C@@H]4[C@@H]2C[C@H]1[C@@]3(C(=O)OC)[C@H]5O
inactive: [1] 91 % of control | [2] 95 % of control | [3] 95 % of control | [4] 100 % of control | [5] 91 % of control | [6] 103 % of control

CCCC(CCC)NCCO
inactive: dose: 75.0 mg/kg/injection, schedule: Q01DX001 (ip), vehicle: saline 98 % of control | dose: 150.0 mg/kg/injection, schedule: Q01DX001 (ip), vehicle: saline 96 % of control

Nc1ncnc2c(C3OC(CO)C(O)C3O)[nH]nc12 (stereo not given)
inactive: dose: 6.25 mg/kg/injection, schedule: Q01DX009 (ip), vehicle: saline with Tween-80 108 % of control | dose: 12.5 mg/kg/injection, schedule: Q01DX009 (ip), vehicle: saline with Tween-80 120 % of control | dose: 25.0 mg/kg/injection, schedule: Q01DX009 (ip), vehicle: saline with Tween-80 113 % of control | [2] 101 % of control | [4] 109 % of control

CCCCCCC(C)NCC(O)COc1cccc(C)c1 (stereo not given)
inactive: dose: 12.5 mg/kg/injection, schedule: Q04DX002 (ip), vehicle: saline with Tween-80 101 % of control | dose: 25.0 mg/kg/injection, schedule: Q04DX002 (ip), vehicle: saline with Tween-80 96 % of control | [7] 93 % of control

O=C1CC(NCCO)C(=O)NN1 (stereo not given)
inactive: dose: 100.0 mg/kg/injection, schedule: Q04DX003 (ip), vehicle: saline 101 % of control | dose: 200.0 mg/kg/injection, schedule: Q04DX003 (ip), vehicle: saline 101 % of control | dose: 400.0 mg/kg/injection, schedule: Q04DX003 (ip), vehicle: saline 104 % of control

O=[N+]([O-])c1ccc(N/N=C(/C(=N/Nc2ccc([N+](=O)[O-])cc2)c2ccccc2)c2ccccc2)cc1
inactive: dose: 12.5 mg/kg/injection, schedule: Q01DX009 (ip), vehicle: other 104 % of control | dose: 25.0 mg/kg/injection, schedule: Q01DX009 (ip), vehicle: other 101 % of control | dose: 50.0 mg/kg/injection, schedule: Q01DX009 (ip), vehicle: other 102 % of control | dose: 100.0 mg/kg/injection, schedule: Q01DX009 (ip), vehicle: other 93 % of control | [2] 93 % of control | dose: 200.0 mg/kg/injection, schedule: Q01DX009 (ip), vehicle: other 93 % of control | [4] 88 % of control | [6] 88 % of control

C=C(C)CSC#N
inactive: dose: 25.0 mg/kg/injection, schedule: Q04DX003 (ip), vehicle: saline with Tween-80 97 % of control | dose: 50.0 mg/kg/injection, schedule: Q04DX003 (ip), vehicle: saline with Tween-80 100 % of control | [2] 100 % of control and 107 % of control

CC(=O)CC(O)(C(F)(F)F)C(F)(F)F
inactive: dose: 50.0 mg/kg/injection, schedule: Q01DX009 (ip), vehicle: saline with Tween-80 101 % of control | [1] 102 % of control | [2] 102 % of control | [3] 101 % of control | [4] 89 % of control

OCc1ccc(Cl)c(Cl)c1
inactive: [2] 97 % of control | [4] 102 % of control | [6] 96 % of control

CC(C)CCC(=O)c1ccccc1
inactive: [7] 87 % of control | dose: 100.0 mg/kg/injection, schedule: Q04DX002 (ip), vehicle: saline with Tween-80 97 % of control | dose: 200.0 mg/kg/injection, schedule: Q04DX002 (ip), vehicle: saline with Tween-80 91 % of control

[Cl][Pt+2][Cl].[NH-]c1ccccc1[NH-]
inactive: dose: 1.25 mg/kg/injection, schedule: Q01DX009 (ip), vehicle: saline with Tween-80 120 % of control | dose: 10.0 mg/kg/injection, schedule: Q01DX009 (ip), vehicle: saline with Tween-80 100 % of control

O=C(Nc1ccc(NC2=NCCN2)cc1)c1ccc(C(=O)Nc2ccc(NC3=NCCN3)cc2)cc1
inactive: dose: 3.0 mg/kg/injection, schedule: Q01DX008 (iv), vehicle: water 115 % of control

CC(=O)OC1CCC2(C)C(=CC=C3C2CCC2(C)C3CC3OC4(CCC(C)CO4)C(C)C32)C1 (stereo not given)
inactive: dose: 50.0 mg/kg/injection, schedule: Q01DX009 (ip), vehicle: Klucel (hydroxypropylcellulose) (HPC) 92 % of control | dose: 100.0 mg/kg/injection, schedule: Q01DX009 (ip), vehicle: Klucel (hydroxypropylcellulose) (HPC) 97 % of control | dose: 200.0 mg/kg/injection, schedule: Q01DX009 (ip), vehicle: Klucel (hydroxypropylcellulose) (HPC) 94 % of control

Cc1cnccc1N=Nc1ccc(N(C)C)cc1
inactive: [1] 117 % of control | [3] 102 % of control | [5] 96 % of control
